Here are results for one compound from patent US10149881B2, “Method for treating inflammatory, allergic or asthma diseases, containing paprika extracts” (priority 2010, dated 2018).

Common to all, as to type: in vivo, mice
One assay has as its system immunoglobulin-E (IgE). Description: Measurement of blood immunoglobulin E (IgE) level, OVA asthma mouse model. The conditions noted are these: FIG. 13. How it is done: When asthma in mice is induced using OVA, the immunoglobulin-E (IgE) among the blood antibody levels of the mice increases in proportion to the severity of asthma. Based on this principle, the paprika extract obtained according to the method of Example 1 was named “sample SP526”, and the blood immunoglobulin-E (IgE) level of the mice was measured. Also, the level of immunoglobulin-E (IgE) was measured.

In assay [1] the test system is infiltration of immune cells. The experiment in a line: Immune cell infiltration, comparison with luteolin in asthma model. The conditions noted are these: FIG. 12. How it is done:
In order to examine whether the asthma inhibitory effect of the paprika extract of the present invention is attributable to a combination of components or a specific component alone, the following test was carried out. Specifically, the immune cell infiltration of luteolin was examined.

The next assay has as its system IgG2a. Description: Analysis of IgG2a, OVA asthma mouse model. To be noted: FIG. 14. On the procedure: (§1) Meanwhile, immunoglobulin IgG2a is produced by activation of Th1 cells, and the activity of Th1 cells reduces the level of IgG1 which is increased by the activity of Th2 cells. Thus, IgG1 and IgG2a were analyzed.
The subject of a further assay is IgG1. Description: Analysis of IgG1, OVA asthma mouse model. To be noted: blood; FIG. 11, FIG. 14. How it is done:
as §1

On to `O=c1cc(-c2ccc(O)c(O)c2)oc2cc(O)cc(O)c12` [luteolin], for which, in the assay on immunoglobulin-E (IgE), the “effect on blood immunoglobulin-E levels” value is listed as “did not reduce”. Besides, the “infiltration of immune cells” value in assay [1] is “inhibited the infiltration of immune cells”. In the assay on IgG2a, the “IgG2a, index of the activation of Th1 cells” value was “produced IgG2a”. Further, the “expression of IgG1” value in the assay with IgG1 was “not inhibited”.
